The source of these data is patent US9034403B2, “Yeast extract containing γ-Glu-X or γ-Glu-X-Gly and a method for producing the same” (AJINOMOTO CO., INC., priority 2010, dated 2015).

In this assay the test system is S288C PADH1-HGT1 (Hgt1p overproducing strain) and S288C. In words: Peptide uptake of Hgt1p overproducing strain and parental strain S288C, intracellular content on dry weight cell. In kind it is cell-based, Saccharomyces cerevisiae. The method, then: One loop of the S288C strain was inoculated into SD medium (50 ml in a 500 ml-volume Sakaguchi flask), and cultured at 30° C. for 24 hours with shaking at a velocity of 120 rpm. Absorbance of the obtained culture broth was measured, the culture broth was inoculated into SD medium (400 ml in a 2 L-volume conical flask with baffle fins, two or more flasks) so that OD660 was 0.01 at the start of the culture, and culture was performed at 30° C. for 19 hours with shaking by rotation at a velocity of 120 rpm. After 19 hours, γ-Glu-Val-Gly aqueous solutions of various concentrations were added to obtain predetermined concentrations, and the culture was continued for 1 hour. Using these culture broths, the γ-Glu-Val-Gly content in dry cells was calculated in the same manner as in Example 2. Furthermore, the solid content of the extract was calculated, and the amount of γ-Glu-Val-Gly in the solid content was also calculated.
The S288C PADH1-HGT1, Hgt1p overproducing strain obtained in Example 12, and its parental strain S288C, were evaluated for their ability to take up γ-Glu-Val-Gly in the same manners as described in Example 4. The amount of γ-Glu-Val-Gly added into the medium was 100 ppm as a final concentration. As a result, intracellular content of γ-Glu-Val-Gly in S288C on the dry weight cell was about 0.9%, but intracellular content of γ-Glu-Val-Gly in S288C PADH1-HGT1 on the dry weight cell was about 4.9%.
S288C PADH1-HGT1, Hgt1p overproducing strain obtained in Example 12, and its parental strain S288C were evaluated for their γ-Glu-nVal-Gly uptake abilities in the same manners as described in Example 4 and Example 13. The amount of γ-Glu-nVal-Gly added to the medium was 100 ppm as a final concentration.

For `CC(C)[C@H](NC(=O)CC[C@H](N)C(=O)O)C(=O)NCC(=O)O` [γ-Glu-Val-Gly], the “intracellular content of γ-Glu-Val-Gly on the dry weight cell” value runs as follows: (S288C PADH1-HGT1, γ-Glu-Val-Gly 100 ppm added into the medium) “about 4.9%”; (S288C, γ-Glu-Val-Gly 100 ppm added into the medium) “about 0.9%”; (S288C, γ-Glu-nVal-Gly 100 ppm added to the medium) “about 0.09%”.
